# Literature values as cited in US9040672B2, “Devices and methods for reducing matrix effects” (Agilent Technologies, Inc., priority 2007, dated 2015).
# Conditions: octanol-water partition coefficient
row,Structure (SMILES),Log P
1,NC(=O)N1c2ccccc2C=Cc2ccccc21 [carbamazepine],2.69
2,CC[C@@H]([C@H](C)O)n1ncn(-c2ccc(N3CCN(c4ccc(OC[C@@H]5CO[C@@](Cn6cncn6)(c6ccc(F)cc6F)C5)cc4)CC3)cc2)c1=O [posaconazole],5.66
